From US20250066341A1 (CHIESI FARMACEUTICI S.P.A., priority 2021, published 2025) come the findings set out here.

Some results are limits rather than exact numbers.

This test has as its target T1, human recombinant LPA1 expressed in CHO cells (Homo sapiens, UniProt Q92633).
T1 construct: expressed in transfected cells; host or cells: CHO cells (CHO-hLPA1 cell line)
Briefly: FLIPR calcium mobilization assay, LPA1 antagonism in CHO-hLPA1 cells. The format is cell-based. The settings on record: inhibition of LPA EC80 Ca2+ response, 30 min pre-incubation, expressed as range of activity. As for the experimental part:
The effectiveness of compounds of the present invention as LPA1 antagonist can be determined at the human recombinant LPA1 expressed in CHO cells, using a FLIPR assay in 384 well format.
CHO-hLPA1 cell lines are cultured in a humidified incubator at 5% C02 in DMEM/F-12 (1:1) MIXTURE with 2 mM Glutamax, supplemented with 10% of Foetal Bovine Serum, 1 mM Sodium Pyruvate, 11 mM Hepes and 1× Penicillin/Streptomycin. […] Serial dilutions (1:3 or 1:4, 11 points CRC) of compounds are performed in 100% DMSO at 200× the final concentration. […] The final concentration of DMSO in the assay will be 0.5% in each well. Medium is removed by aspiration and cells are then incubated with 30 μl of a loading solution containing 5 μM of the cytoplasmic Ca2+ indicator Cal-520 AM in Assay Buffer containing 2.5 mM probenecid for 30 min at 37° C. incubator (cell loading). The loaded cell plates are transferred into the FLIPR instrument and calcium responses are monitored during the on-line addition protocols. For testing of compounds, after the cell loading, 10 μl/well of 4× antagonists' solution was added onto the cells. After 30 min pre-incubation (at 37° C.), 10 μl/well of 5× concentrated LPA EC80 was added and Ca2+ mobilization responses was followed during the on-line addition protocol. Intracellular peak fluorescence values subtracted by baseline fluorescence are exported and analysed to determine IC50 values, respectively. The calcium response is expressed as percentage of the maximal inhibition of the EC80 agonist response.
The raw data (peak height expressed as relative fluorescence units) are normalized and transformed into “percent of inhibition”. Curve fitting and pIC50 (−LogIC50) estimations are carried out using a four-parameter logistic model using XLfit Software.
For orientation: A change in cytosolic calcium serves as a functional read-out for many receptors and channels.

T1 sequence (Q92633 whole entry): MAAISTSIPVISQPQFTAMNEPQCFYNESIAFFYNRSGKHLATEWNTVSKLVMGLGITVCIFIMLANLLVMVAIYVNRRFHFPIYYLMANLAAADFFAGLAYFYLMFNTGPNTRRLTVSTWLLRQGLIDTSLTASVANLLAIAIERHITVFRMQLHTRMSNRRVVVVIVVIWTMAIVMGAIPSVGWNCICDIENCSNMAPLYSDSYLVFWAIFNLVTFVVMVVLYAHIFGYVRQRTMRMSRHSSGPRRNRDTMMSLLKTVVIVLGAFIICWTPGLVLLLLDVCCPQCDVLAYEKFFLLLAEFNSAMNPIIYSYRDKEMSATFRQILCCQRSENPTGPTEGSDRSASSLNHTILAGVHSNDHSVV

For `Cc1nc(-c2onc(C)c2NS(=O)(=O)CCOc2ccc(F)cc2)ccc1OC[C@H]1CCCC[C@@H]1C(=O)O` [Compound 55, (1S,2S)-2-(((6-(4-((2-(4-fluorophenoxy)ethyl)sulfonamido)-3-methylisoxazol-5-yl)-2-methylpyridin-3-yl)oxy)methyl)cyclohexane-1-carboxylic acid], the 50% inhibitory concentration (IC50) (in general, the concentration needed to halve the response being measured) is under 50 nM. For `Cc1nc(-c2onc(C)c2NS(=O)(=O)c2ccccc2)ccc1OC[C@H]1CCCC[C@@H]1C(=O)O` [Compound 56, (1S,2S)-2-(((2-methyl-6-(3-methyl-4-(phenylsulfonamido)isoxazol-5-yl)pyridin-3-yl)oxy)methyl)cyclohexane-1-carboxylic acid], the IC50 lay in the range of 250 to 600 nM. Then `Cc1nc(-c2onc(C)c2NS(=O)(=O)CCc2ccccc2)ccc1OC[C@H]1CCCC[C@@H]1C(=O)O` [Compound 57, (1S,2S)-2-(((2-methyl-6-(3-methyl-4-((2-phenylethyl)sulfonamido)isoxazol-5-yl)pyridin-3-yl)oxy)methyl)cyclohexane-1-carboxylic acid], with under 50 nM. As for `Cc1nc(-c2cnn(C)c2NC(=O)O[C@H](C)c2ccccc2Cl)ccc1OC[C@H]1CCCC[C@@H]1C(=O)O` [Compound 58, (1S,2S)-2-(((6-(5-((((R)-1-(2-chlorophenyl)ethoxy)carbonyl)amino)-1-methyl-1H-pyrazol-4-yl)-2-methylpyridin-3-yl)oxy)methyl)cyclohexane-1-carboxylic acid], the figure is under 50 nM; as for `Cc1noc(-c2ccc(OC[C@H]3CCCC[C@@H]3C(=O)O)cc2)c1NC(=O)O[C@H](C)c1cccnc1` [Compound 59, (1S,2S)-2-((4-(3-methyl-4-((((R)-1-(pyridin-3-yl)ethoxy)carbonyl)amino)isoxazol-5-yl)phenoxy)methyl)cyclohexane-1-carboxylic acid], 50 to 250 nM; as for `Cc1nc(-c2cnn(C)c2CNc2nccc(-c3ccccc3)n2)ccc1OC[C@H]1CCCC[C@@H]1C(=O)O` [Compound 61, (1S,2S)-2-(((2-methyl-6-(1-methyl-5-(((4-phenylpyrimidin-2-yl)amino)methyl)-1H-pyrazol-4-yl)pyridin-3-yl)oxy)methyl)cyclohexane-1-carboxylic acid], under 50 nM. On to `Cc1nc(-c2nnn(C)c2CNC(=O)OCc2ccccc2)ccc1OC[C@H]1CCCC[C@@H]1C(=O)O` [Compound 62, (1S,2S)-2-(((6-(5-((((benzyloxy)carbonyl)amino)methyl)-1-methyl-1H-1,2,3-triazol-4-yl)-2-methylpyridin-3-yl)oxy)methyl)cyclohexane-1-carboxylic acid], for which the IC50 was under 50 nM. As for `Cc1nc(-c2nnn(C)c2CNC(=O)O[C@H](C)c2cccnc2Cl)ccc1OC[C@H]1CCCC[C@@H]1C(=O)O` [Compound 63, (1S,2S)-2-(((6-(5-(((((R)-1-(2-chloropyridin-3-yl)ethoxy)carbonyl)amino)methyl)-1-methyl-1H-1,2,3-triazol-4-yl)-2-methylpyridin-3-yl)oxy)methyl)cyclohexane-1-carboxylic acid], the figure is under 50 nM; as for `Cc1nc(-c2nnn(C)c2CNC(=O)OCc2cccnc2Cl)ccc1OC[C@H]1CCCC[C@@H]1C(=O)O` [Compound 64, (1S,2S)-2-(((6-(5-(((((2-chloropyridin-3-yl)methoxy)carbonyl)amino)methyl)-1-methyl-1H-1,2,3-triazol-4-yl)-2-methylpyridin-3-yl)oxy)methyl)cyclohexane-1-carboxylic acid], 50 to 250 nM; as for `Cc1nc(-c2nnn(C)c2CNc2nccc(-c3cnccn3)n2)ccc1OC[C@H]1CCCC[C@@H]1C(=O)O` [Compound 65, (1S,2S)-2-(((2-methyl-6-(1-methyl-5-(((4-(pyrazin-2-yl)pyrimidin-2-yl)amino)methyl)-1H-1,2,3-triazol-4-yl)pyridin-3-yl)oxy)methyl)cyclohexane-1-carboxylic acid], under 50 nM. As for `Cc1nc(-c2nnn(C)c2CNc2nccc(OC(C)C)n2)ccc1OC[C@H]1CCCC[C@@H]1C(=O)O` [Compound 66, (1S,2S)-2-(((6-(5-(((4-isopropoxypyrimidin-2-yl)amino)methyl)-1-methyl-1H-1,2,3-triazol-4-yl)-2-methylpyridin-3-yl)oxy)methyl)cyclohexane-1-carboxylic acid], the figure is under 50 nM; as for `CCC[C@@H](C)OC(=O)Nc1c(-c2ccc(OC[C@H]3CCCC[C@@H]3C(=O)O)c(C)n2)nnn1C` [Compound 68, (1S,2S)-2-(((2-methyl-6-(1-methyl-5-(((((R)-pentan-2-yl)oxy)carbonyl)amino)-1H-1,2,3-triazol-4-yl)pyridin-3-yl)oxy)methyl)cyclohexane-1-carboxylic acid], under 50 nM; as for `Cc1nc(-c2nnn(C)c2NC(=O)O[C@H](C)c2ccccc2Cl)ccc1OC[C@H]1CCCC[C@@H]1C(=O)O` [Compound 69], under 50 nM.

Regarding `CCC[C@@H](C)OC(=O)Nc1c(C)noc1-c1ccc(OC[C@H]2CCCC[C@@H]2C(=O)O)c(C)n1` [Compound 70], the half-inhibitory concentration (IC50) was under 50 nM. As for `Cc1nc(-c2nnn(C)c2Nc2cncc(OC(C)C)n2)ccc1OC[C@H]1CCCC[C@@H]1C(=O)O` [Compound 71, (1S,2S)-2-(((6-(5-((6-isopropoxypyrazin-2-yl)amino)-1-methyl-1H-1,2,3-triazol-4-yl)-2-methylpyridin-3-yl)oxy)methyl)cyclohexane-1-carboxylic acid], the figure is under 50 nM; as for `CCOc1cncc(Nc2c(-c3ccc(OC[C@H]4CCCC[C@@H]4C(=O)O)c(C)n3)nnn2C)n1` [Compound 72, (1S,2S)-2-(((6-(5-((6-ethoxypyrazin-2-yl)amino)-1-methyl-1H-1,2,3-triazol-4-y1)-2-methylpyridin-3-yl)oxy)methyl)cyclohexane-1-carboxylic acid], 50 to 250 nM. Then `Cc1nc(-c2nnn(C)c2CNc2cncc(OC(C)C)n2)ccc1OC[C@H]1CCCC[C@@H]1C(=O)O` [Compound 73], with 50 to 250 nM; and `Cc1nc(-c2onc(C)c2COC(=O)N(C)C2CCCC2)ccc1OC[C@H]1CCCC[C@@H]1C(=O)O` [Compound 74, (1S,2S)-2-(((6-(4-(((cyclopentyl(methyl)carbamoyl)oxy)methyl)-3-methylisoxazol-5-yl)-2-methylpyridin-3-yl)oxy)methyl)cyclohexane-1-carboxylic acid], with under 50 nM; and `CCCN(C)C(=O)OCc1c(C)noc1-c1ccc(OC[C@H]2CCCC[C@@H]2C(=O)O)c(C)n1` [Compound 75, (1S,2S)-2-(((2-methyl-6-(3-methyl-4-(((methyl(propyl)carbamoyl)oxy)methyl)isoxazol-5-y1)pyridin-3-yl)oxy)methyl)cyclohexane-1-carboxylic acid], with under 50 nM. Then `CCCN(C)C(=O)OCc1c(-c2ccc(OC[C@H]3CCCC[C@@H]3C(=O)O)c(C)n2)nnn1C` [Compound 76, (1S,2S)-2-(((2-methyl-6-(1-methyl-5-(((methyl(propyl)carbamoyl)oxy)methyl)-1H-1,2,3-triazol-4-yl)pyridin-3-yl)oxy)methyl)cyclohexane-1-carboxylic acid], with 50 to 250 nM; and `Cc1noc(-c2ccc(OCC3CCCCC3C(=O)O)cc2)c1NC(=O)O[C@H](C)c1ccccc1Cl` (stereo partly drawn) [Compound 77, 2-((4-(4-((((R)-1-(2-chlorophenyl)ethoxy)carbonyl)amino)-3-methylisoxazol-5-yl)phenoxy)methyl)cyclohexane-1-carboxylic acid], with under 50 nM.
